Inhibition and IC50 data for three compounds are collected here from patent US6921777B2, “Heteroethynylenic compounds and pharmaceutical and cosmetic compositions containing them” (Galderma Research & Development, S.N.C., priority 1998, dated 2005).

This assay deals with T1, RXRalpha (Homo sapiens, UniProt P19793).
T1 construct: expressed in transfected cells; host or cells: Cos7 monkey kidney cells
T1 sequence (P19793 1-462): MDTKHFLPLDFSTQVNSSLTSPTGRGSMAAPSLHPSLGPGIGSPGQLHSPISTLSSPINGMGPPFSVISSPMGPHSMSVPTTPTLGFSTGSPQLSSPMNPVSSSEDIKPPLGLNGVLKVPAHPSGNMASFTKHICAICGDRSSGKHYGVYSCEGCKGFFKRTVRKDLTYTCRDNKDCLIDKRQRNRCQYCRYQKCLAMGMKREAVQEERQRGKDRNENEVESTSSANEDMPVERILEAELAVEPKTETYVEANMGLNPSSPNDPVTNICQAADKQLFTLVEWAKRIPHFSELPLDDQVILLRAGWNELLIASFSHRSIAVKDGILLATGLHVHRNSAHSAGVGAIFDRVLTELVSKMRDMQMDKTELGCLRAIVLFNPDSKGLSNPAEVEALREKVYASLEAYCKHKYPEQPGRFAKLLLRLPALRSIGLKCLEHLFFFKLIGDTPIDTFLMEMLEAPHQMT
The experiment in a line: RXR antagonist transactivation test (cotransfection pSG5-RXRalpha / CRBPII-tk-Luc, luciferase). In kind it is cell-based. The conditions noted are these: Cos7 cells; for inhibition at 1 µM: COS-7, test compound at 10^−6M final, 3 nM reference agonist, treatment 18 h, luciferase activity, read-out: % of inhibition of the induction obtained with the agonist alone; for IC50: in the presence of 3 nM agonist 6-[1-(3,5,5,8,8-pentamethyl-5,6,7,8-tetrahydro-2-naphthalenyl)cyclopropyl]nicotinic acid, 5 concentrations 10^−5 to 10^−9 M, read-out: IC50 (dose required to achieve 50% inhibition of the agonist activity). From the text:
a) Determination of the IC50 values of the antagonist compounds
The dose-response curve obtained makes it possible to determine the IC50 value which is specific to the compound.
b) Test of RXR Antagonist Transactivation
The properties of inhibition of the activation of the RXR response elements (RXRE) can be determined by recognized methods of the art.
The receptor expression plasmid pSG5-RXRalpha and the reporter plasmid CRBPII-tk-Luc are introduced into the Cos7 monkey kidney cell line by the method of coprecipitation with calcium phosphate described in Molecular Cloning: A laboratory manual (Sambrook et al. eds. Cold Spring Harbor Lab. Publ. 1989). […] The test compound is added at 10^−6M final. After treatment for 18 h, the cells are rinsed with PBS and lysed in 0.1M KPO4 (pH 7.8), 1.0% Triton X100, 1.0 mM DTT, 1 mM EDTA. The luciferase activity of the cell lysatesis measured as described by deWet et al. in Mol. Cell. Biol. 7:725 (1987).

Turning to `CCCOc1cc2c(cc1[Se]C#CC(C)=CC(=O)O)C(C)(C)CCC2(C)C` [EXAMPLE 10, 3-Methyl-5-(5,5,8,8-tetramethyl-3-propoxy-5,6,7,8-tetrahydronaphthalen-2-ylselenyl)pent-2-en-4-ynoic Acid], the inhibition at 1 µM is 57% and the IC50 is 671 nM.

On to `CCCOc1cc([Se]C#CC(C)=CC(=O)O)cc2c1C(C)(C)CCC2(C)C` [EXAMPLE 12, 3-Methyl-5-(5,5,8,8-tetramethyl-4-propoxy-5,6,7,8-tetrahydronaphthalen-2-ylselenyl)pent-2-en-4-ynoic Acid], for which the inhibition at 1 µM is 92% and the IC50 amounted to 71 nM.

For the compound `COCOc1cc([Se]C#CC(C)=CC(=O)O)cc2c1C(C)(C)CCC2(C)C` [EXAMPLE 14, 5-(4-Methoxymethoxy-5,5,8,8-tetramethyl-5,6,7,8-tetrahydronaphthalen-2-ylselenyl)-3-methylpent-2-en-4-ynoic Acid], the inhibition at 1 µM came out at 61% and the IC50 stood at 471 nM.
